This is an account of results in patent publication US5972894A, “Peptides having potassium channel opener activity” (Cytran, Inc., priority 1997, dated 1999).

Residues, ends and D or L forms follow the SMILES beside them.

The test system of this assay is rats. Put plainly: Early ischemic myocardial arrhythmias after coronary artery ligation. It counts as in vivo. To be noted: for Number of Ventricular Extrasystoles / Overall Duration of Ventricular Tachycardia: 30 min after coronary occlusion. As to the method: White random-bred male rats weighing 200 g were given light ether anesthesia and were then immobilized and artificially ventilated. The descending branch of the left coronary artery of each rat was ligated. Immediately following ligation, a test or control substance was administered to each rat through the catheterized femoral vein, and an ECG recording was initiated (standard lead II) and maintained for the next 30 minutes.
GE and VT served as test substances and were administered to animals in the respective test groups at doses of 0.1, 1.0, and 10.0 mg/kg. The β-adrenergic blocking agent, propranolol (Obzidan, Germed, Germany), served as the positive control substance and was administered intravenously to each animal in the positive control group at a dose of 0.5 mg/kg. Physiological saline served as the negative control substance and was administered intravenously to animals in the negative control group. Each dose of each test or control substance was tested separately on a group of nine animals.
The following parameters were evaluated based upon the ECG recordings: (i) the number of ventricular extrasystoles that occurred within a 30-minute observation period following coronary occlusion; (ii) the overall cumulative duration of ventricular tachycardias (i.e., the summation of duration of individual paroxysmal ventricular rhythm disturbances in seconds) occurring within the 30-minute observation period; and (iii) the overall duration (in seconds) of the ventricular fibrillations occurring within the 30-minute observation period. The data were processed electronically and statistical comparisons were made between the values obtained from the animals in the experimental test groups and those in the different respective control groups.

As for `NCC(=O)N[C@@H](CCC(=O)O)C(=O)O` [GE, L-Glycyl-L-Glutamic acid] (H-Gly-Glu-OH), the “Number of Ventricular Extrasystoles” value by setting is: (0.1 mg/kg i.v.) 25.22; (1.0 mg/kg i.v.) 116.22; (10.0 mg/kg i.v.) 47.78. The “Overall Duration of Ventricular Tachycardia” value runs as follows: (0.1 mg/kg i.v.) 38.67 s; (1.0 mg/kg i.v.) 93.17 s; (10.0 mg/kg i.v.) 51.78 s. Also, the “effect on overall duration of ventricular tachycardias” value (all of the tested doses) is reported as “reduced the overall duration of ventricular tachycardias”.
